Legend:
[1] = target: T1, Polyunsaturated fatty acid 5-lipoxygenase (Homo sapiens, UniProt P09917); assay: Inhibition of 5-LOX (unknown origin)
T1 sequence (P09917 whole entry): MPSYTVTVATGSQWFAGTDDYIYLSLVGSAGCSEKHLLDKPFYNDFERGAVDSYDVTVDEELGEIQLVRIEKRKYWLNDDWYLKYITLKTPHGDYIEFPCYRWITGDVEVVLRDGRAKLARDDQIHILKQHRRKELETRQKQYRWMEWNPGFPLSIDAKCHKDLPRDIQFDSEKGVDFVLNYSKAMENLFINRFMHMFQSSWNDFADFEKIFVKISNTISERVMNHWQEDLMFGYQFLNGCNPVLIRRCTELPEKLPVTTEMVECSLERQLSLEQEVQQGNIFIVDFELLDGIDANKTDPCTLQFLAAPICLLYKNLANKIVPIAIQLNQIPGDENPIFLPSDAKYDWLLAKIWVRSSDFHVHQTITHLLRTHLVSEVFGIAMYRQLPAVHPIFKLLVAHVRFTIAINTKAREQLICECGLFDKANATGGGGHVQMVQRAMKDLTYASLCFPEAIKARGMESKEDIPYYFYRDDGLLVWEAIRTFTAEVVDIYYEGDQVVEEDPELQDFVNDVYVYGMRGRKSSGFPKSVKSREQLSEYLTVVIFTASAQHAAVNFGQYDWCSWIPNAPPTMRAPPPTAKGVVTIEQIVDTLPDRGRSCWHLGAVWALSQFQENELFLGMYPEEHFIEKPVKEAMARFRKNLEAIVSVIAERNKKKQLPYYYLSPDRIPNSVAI

[2] = target: T2, Prostaglandin G/H synthase 2 (Homo sapiens, UniProt P35354); assay: Inhibition of COX2 (unknown origin)
T2 sequence (P35354 whole entry): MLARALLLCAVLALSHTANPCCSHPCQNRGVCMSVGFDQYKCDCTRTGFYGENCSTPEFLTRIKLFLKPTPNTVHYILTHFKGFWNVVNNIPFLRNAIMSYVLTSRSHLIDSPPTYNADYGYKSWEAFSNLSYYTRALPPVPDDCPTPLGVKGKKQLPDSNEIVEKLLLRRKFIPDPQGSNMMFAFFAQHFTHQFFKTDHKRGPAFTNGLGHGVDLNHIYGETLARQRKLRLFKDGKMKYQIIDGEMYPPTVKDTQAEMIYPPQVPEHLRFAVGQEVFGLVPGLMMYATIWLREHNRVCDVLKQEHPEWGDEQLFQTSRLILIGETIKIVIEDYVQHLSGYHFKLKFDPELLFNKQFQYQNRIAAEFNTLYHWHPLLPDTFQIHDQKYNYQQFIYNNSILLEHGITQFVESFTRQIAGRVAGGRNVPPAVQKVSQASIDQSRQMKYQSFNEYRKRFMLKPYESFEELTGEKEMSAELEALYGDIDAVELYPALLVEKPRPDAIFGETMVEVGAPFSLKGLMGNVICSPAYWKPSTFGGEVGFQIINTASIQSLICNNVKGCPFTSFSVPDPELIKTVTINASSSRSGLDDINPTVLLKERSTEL

IC50 [1]	IC50 [2]	SMILES
65 to 1250 nM	–	CC[C@](O)(c1nnc(NCc2ccc3c(-c4ccc(F)cc4)cc(=O)oc3c2)o1)C(F)(F)F [SETILEUTON]
65 to 1250 nM	–	O=C(O)c1noc(-c2ccc(OCc3ccc4ccccc4n3)cc2)c1-c1ccc(Cl)cc1
65 to 1250 nM	–	Cc1cc(Nc2ncc(-c3ccc(F)cc3)o2)cc(C)c1O
850 nM	150 nM	CS(=O)(=O)c1ccc(-c2nc(SCCN(O)C(N)=O)nn2-c2ccc(Br)cc2)cc1
